We go through 27 compounds from ChEMBL document CHEMBL3217601, “Optimized glucuronidation of dual pharmacology -2 agonists/M3 antagonists for the treatment of COPD” (Medchemcomm, 2011).

Bounds are passed on as bounds.

The target of data set [1] is Muscarinic acetylcholine receptor M3 (Homo sapiens, UniProt P20309). The data set is described as follows: Displacement of [3H]-N-methyl scopolamine from human cloned muscarinic M3 receptor.
For data set [2], the target named is Beta-2 adrenergic receptor (Homo sapiens, UniProt P07550). The data set is described as follows: Agonist activity at human beta-2 adrenoceptor expressed in CHO cells assessed as stimulation of intracellular cAMP production. The format is functional, cell-based.
The target in data set [3] is Beta-1 adrenergic receptor (Homo sapiens, UniProt P08588). The experiment in a line: Agonist activity at beta-1 adrenoceptor (unknown origin).
Data set [4] in a line: Drug metabolism of the compound in human liver microsomes assessed as glucuronidation in absence of NADPH and presence of microsomal activator Brij58 and UDPGA.
The nature of data set [5]: Intrinsic clearance in human liver microsomes assessed as glucuronidation in absence of NADPH and presence of microsomal activator Brij58 and UDPGA.
The nature of data set [6]: Therapeutic index, ratio of cardiovascular toxicity in dog to bronchodilatory activity in intratracheally dosed dog. The format is organism-based, Canis lupus familiaris, Trachea. Conditions: in vivo, inhaled or intranasal, read-out: TI.

Sequence of Beta-1 adrenergic receptor (P08588 whole entry): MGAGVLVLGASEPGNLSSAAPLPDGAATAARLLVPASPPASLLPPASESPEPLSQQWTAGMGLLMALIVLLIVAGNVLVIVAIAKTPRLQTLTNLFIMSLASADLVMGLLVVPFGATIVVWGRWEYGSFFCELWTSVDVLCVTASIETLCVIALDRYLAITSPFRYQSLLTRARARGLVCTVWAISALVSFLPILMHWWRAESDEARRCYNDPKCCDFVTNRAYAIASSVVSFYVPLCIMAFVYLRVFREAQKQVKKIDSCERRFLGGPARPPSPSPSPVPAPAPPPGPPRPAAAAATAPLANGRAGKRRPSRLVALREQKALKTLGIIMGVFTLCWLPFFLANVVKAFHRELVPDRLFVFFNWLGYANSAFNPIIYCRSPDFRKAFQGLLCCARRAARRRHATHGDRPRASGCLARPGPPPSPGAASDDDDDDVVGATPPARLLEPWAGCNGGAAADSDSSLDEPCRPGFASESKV
Sequence of Beta-2 adrenergic receptor (P07550 whole entry): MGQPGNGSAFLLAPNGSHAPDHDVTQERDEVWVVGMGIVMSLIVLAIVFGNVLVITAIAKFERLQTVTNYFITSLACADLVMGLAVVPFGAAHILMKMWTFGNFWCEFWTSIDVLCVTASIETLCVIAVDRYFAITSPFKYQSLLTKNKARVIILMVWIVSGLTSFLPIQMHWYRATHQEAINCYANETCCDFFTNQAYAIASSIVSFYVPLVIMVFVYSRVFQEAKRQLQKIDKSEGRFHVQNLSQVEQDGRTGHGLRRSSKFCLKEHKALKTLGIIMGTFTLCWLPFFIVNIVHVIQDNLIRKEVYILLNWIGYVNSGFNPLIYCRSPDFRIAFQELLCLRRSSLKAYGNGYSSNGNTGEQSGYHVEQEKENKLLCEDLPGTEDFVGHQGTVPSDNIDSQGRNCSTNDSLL
Sequence of Muscarinic acetylcholine receptor M3 (P20309 whole entry): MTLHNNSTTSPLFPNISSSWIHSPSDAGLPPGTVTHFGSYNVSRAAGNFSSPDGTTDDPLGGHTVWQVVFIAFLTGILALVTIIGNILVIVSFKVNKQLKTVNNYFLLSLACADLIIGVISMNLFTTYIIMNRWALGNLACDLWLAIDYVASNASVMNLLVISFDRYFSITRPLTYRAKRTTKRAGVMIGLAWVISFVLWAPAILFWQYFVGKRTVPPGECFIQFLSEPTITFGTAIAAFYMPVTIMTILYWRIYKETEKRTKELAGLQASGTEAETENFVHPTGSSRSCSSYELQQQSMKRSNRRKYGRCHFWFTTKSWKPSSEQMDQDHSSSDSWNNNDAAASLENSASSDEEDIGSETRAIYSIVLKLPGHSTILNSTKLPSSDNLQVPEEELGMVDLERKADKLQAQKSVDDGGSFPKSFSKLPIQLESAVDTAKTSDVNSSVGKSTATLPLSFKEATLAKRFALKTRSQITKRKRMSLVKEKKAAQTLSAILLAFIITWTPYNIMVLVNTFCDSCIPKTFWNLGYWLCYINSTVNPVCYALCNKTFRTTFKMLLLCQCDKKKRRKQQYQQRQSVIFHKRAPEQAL

Compound `CS(=O)(=O)Nc1cc([C@@H](O)CNCCc2ccc(OCCCN3CCC(OC(=O)Nc4ccccc4-c4ccc(O)c(Cl)c4)CC3)cc2)ccc1O` showed an inhibition constant Ki in data set [1] of 3.1 nM. Further, the EC50 in data set [2] is 13 nM; in data set [3], above 10000 nM. In addition, the intrinsic clearance (microsomal CLint) in data set [4] came out at 29 µL/min/mg; in data set [5], 33 µL/min/mg.

In data set [1], `CS(=O)(=O)Nc1cc([C@@H](O)CNCCCCCCCCCN2CCC(OC(=O)Nc3ccccc3-c3cc(F)cc(F)c3O)CC2)ccc1O` yielded a Ki of 22 nM. Besides, the half-maximal effective concentration (EC50) in data set [2] was 102 nM; in data set [3], above 10000 nM. In addition, the figures for the intrinsic metabolic clearance (microsomal CLint) in data set [4] and in data set [5] were below 3.5 µL/min/mg and 20 µL/min/mg, respectively.

`CS(=O)(=O)Nc1cc([C@@H](O)CNCCCCCCCCCN2CCC(OC(=O)Nc3ccccc3-c3cc(F)c(O)cc3F)CC2)ccc1O`: in data set [1], the Ki is 8.3 nM. The concentration for a half-maximal effect (EC50) is 22 nM in data set [2] and above 10000 nM in data set [3]. The microsomal CLint in data set [4] was found to be 90 µL/min/mg; in data set [5] it was 13 µL/min/mg.

For the compound `CS(=O)(=O)Nc1cc([C@@H](O)CNCCCCCCCCCN2C[C@@H]3[C@@H](COC(=O)Nc4ccccc4-c4ccc(O)c(Cl)c4)[C@@H]3C2)ccc1O`, in data set [1], the Ki worked out at 1.3 nM. Further, the figures for the EC50 in data set [2] and in data set [3] were 42 nM and above 10000 nM, respectively. The microsomal CLint in data set [4] is 13 µL/min/mg; in data set [5] it was 7 µL/min/mg.

On to `O=C(Nc1ccccc1-c1ccccc1)OC1CCN(CCCCCCCCCNC[C@H](O)c2ccc(O)c3[nH]c(=O)ccc23)CC1`, for which the half-maximal effective concentration (EC50) in data set [3] is above 10000 nM.

`CS(=O)(=O)Nc1cc([C@@H](O)CNCCCCCCCCCN2CCC(OC(=O)Nc3ccccc3-c3cc(O)cc(F)c3)CC2)ccc1O` returned a Ki in data set [1] of 76 nM. Moreover, the figures for the EC50 in data set [2] and in data set [3] were 65 nM and above 10000 nM, respectively. The microsomal CLint in data set [4] turned out to be 4 µL/min/mg; in data set [5], 28 µL/min/mg.

With `Cc1ccc(NC(=O)OC2CCN(CCCCCCCCCNC[C@H](O)c3ccc(O)c(NS(C)(=O)=O)c3)CC2)c(-c2ccc(O)c(Cl)c2)c1`, in data set [1], the Ki was 4.8 nM. Also, the EC50 in data set [3] was above 10000 nM. Also, the microsomal CLint in data set [4] was determined as 19 µL/min/mg; in data set [5], 22 µL/min/mg.

`Cc1ccc(-c2ccc(O)c(Cl)c2)c(NC(=O)OC2CCN(CCCCCCCCCNC[C@H](O)c3ccc(O)c(NS(C)(=O)=O)c3)CC2)c1`: the inhibitory constant (Ki) in data set [1] came to 2 nM. The half-maximal effective concentration (EC50) is 14 nM in data set [2] and above 10000 nM in data set [3]. For the same compound, the results for the microsomal CLint in data set [4] and in data set [5] were 6 µL/min/mg and 29 µL/min/mg, respectively.

Turning to `CS(=O)(=O)Nc1cc([C@@H](O)CNCCCCCCCCN2CCC(OC(=O)Nc3ccccc3-c3ccc(O)c(Cl)c3)CC2)ccc1O`, the Ki in data set [1] is 1.1 nM. Further, the concentration for a half-maximal effect (EC50) in data set [2] is 20 nM; in data set [3] it was above 10000 nM. For the same compound, the intrinsic metabolic clearance (microsomal CLint) was 24 µL/min/mg in data set [4] and 17 µL/min/mg in data set [5].

`CS(=O)(=O)Nc1cc([C@@H](O)CNCCCCCCCCCN2CCC(OC(=O)Nc3ccccc3-c3ccccc3)CC2)ccc1O` yielded an inhibitory constant (Ki) in data set [1] of 0.39 nM. Further, the results for the EC50 in data set [2] and in data set [3] were 74 nM and above 10000 nM, respectively. Besides, the microsomal CLint is below 2 µL/min/mg in data set [4] and 40 µL/min/mg in data set [5].

Take `CS(=O)(=O)Nc1cc([C@@H](O)CNCCCCCCCCCN2CCC(OC(=O)Nc3ccccc3-c3cc(C#N)ccc3O)CC2)ccc1O`: the inhibitory constant (Ki) in data set [1] is above 73 nM. The compound also gave a concentration for a half-maximal effect (EC50) in data set [3] above 10000 nM. Besides, the intrinsic clearance (microsomal CLint) in data set [4] came out at 3.7 µL/min/mg; in data set [5], 33 µL/min/mg.

On to `CS(=O)(=O)Nc1cc([C@@H](O)CNCCCCCCCCCN2C[C@H]3C[C@@]3(COC(=O)Nc3ccccc3-c3ccc(O)c(Cl)c3)C2)ccc1O`, for which affinity in data set [1] was put at a Ki of 4.3 nM. For the same compound, the EC50 in data set [2] is 17 nM; in data set [3], above 10000 nM. Further, the microsomal CLint is 28 µL/min/mg in data set [4] and 49 µL/min/mg in data set [5].

In turn, `CS(=O)(=O)Nc1cc([C@@H](O)CNCCCCCCCCCN2CCC(OC(=O)Nc3ccccc3-c3cccc(F)c3O)CC2)ccc1O` returned an inhibition constant (Ki) in data set [1] of 10 nM. The EC50 in data set [3] was above 10000 nM. For the same compound, in data set [4], the microsomal CLint is below 2 µL/min/mg.

Regarding `CS(=O)(=O)Nc1cc([C@@H](O)CNCCCCCCCCCN2CCC(OC(=O)Nc3ccc(F)cc3-c3ccc(O)c(Cl)c3)CC2)ccc1O`, the inhibition constant Ki in data set [1] was found to be 1.1 nM. Further, the EC50 in data set [2] is 23 nM; in data set [3], above 10000 nM. Further, the microsomal CLint amounted to 17 µL/min/mg in data set [4] and 25 µL/min/mg in data set [5].

Compound `CS(=O)(=O)Nc1cc([C@@H](O)CNCCCCCCCCCN2C3CCC2CC(OC(=O)Nc2ccccc2-c2ccc(O)c(Cl)c2)C3)ccc1O` (stereo partly specified) had a Ki in data set [1] of 8.9 nM. Further, the concentration for a half-maximal effect (EC50) was 23 nM in data set [2] and above 10000 nM in data set [3]. In addition, the figures for the intrinsic clearance (microsomal CLint) in data set [4] and in data set [5] were 7.8 µL/min/mg and 8 µL/min/mg, respectively.

`CS(=O)(=O)Nc1cc([C@@H](O)CNCCCCCCCCCN2CCC(OC(=O)Nc3ccccc3-c3cccc(O)c3)CC2)ccc1O` registered a Ki in data set [1] of 3.7 nM. Further, the half-maximal effective concentration (EC50) in data set [2] is 129 nM; in data set [3], above 10000 nM. For the same compound, the microsomal CLint in data set [4] is below 3.5 µL/min/mg; in data set [5], 26 µL/min/mg.

In the case of `CS(=O)(=O)Nc1cc([C@@H](O)CNCCCCCCCCCCCN2CCC(OC(=O)Nc3ccccc3-c3ccc(O)c(Cl)c3)CC2)ccc1O`, the inhibition constant Ki in data set [1] amounted to 4.4 nM. The results for the EC50 in data set [2] and in data set [3] were 195 nM and above 10000 nM, respectively. Besides, the figures for the intrinsic metabolic clearance (microsomal CLint) in data set [4] and in data set [5] were 16 µL/min/mg and 45 µL/min/mg, respectively.

In data set [1], `CS(=O)(=O)Nc1cc([C@@H](O)CNCCCCCCCCCN2CCC(OC(=O)Nc3ccccc3-c3ccc(O)c(F)c3)CC2)ccc1O` gave a Ki of 5 nM. The half-maximal effective concentration (EC50) was 26 nM in data set [2] and above 10000 nM in data set [3]. Further, the intrinsic clearance (microsomal CLint) was found to be 30 µL/min/mg in data set [4] and 16 µL/min/mg in data set [5].

Turning to `CS(=O)(=O)Nc1cc([C@@H](O)CNCCCCCCCCCN2CC[C@@H](OC(=O)Nc3ccccc3-c3ccc(O)c(Cl)c3)C2)ccc1O`, affinity in data set [1] was put at a Ki of 9.2 nM. Further, the EC50 in data set [2] is 24 nM; in data set [3] it was above 10000 nM. Besides, the results for the microsomal CLint in data set [4] and in data set [5] were 51 µL/min/mg and 39 µL/min/mg, respectively.

The compound `CS(=O)(=O)Nc1cc([C@@H](O)CNCCCCCCCCCCN2CCC(OC(=O)Nc3ccccc3-c3ccc(O)c(Cl)c3)CC2)ccc1O` displayed a Ki in data set [1] of 2 nM. For the same compound, the EC50 is 21 nM in data set [2] and above 10000 nM in data set [3]. The figures for the microsomal CLint in data set [4] and in data set [5] were 22 µL/min/mg and 34 µL/min/mg, respectively.

In turn, `CS(=O)(=O)Nc1cc([C@@H](O)CNCCCCCCCCCN2CCC(OC(=O)Nc3cc(F)ccc3-c3ccc(O)c(Cl)c3)CC2)ccc1O` returned a Ki in data set [1] of 4.4 nM. In addition, the figures for the EC50 in data set [2] and in data set [3] were 57 nM and above 10000 nM, respectively. Further, the intrinsic metabolic clearance (microsomal CLint) was determined as 6 µL/min/mg in data set [4] and 15 µL/min/mg in data set [5].

Turning to `OCc1cc(C(O)CNCCCCCCOCCCCc2ccccc2)ccc1O` (stereo unspecified) [SALMETEROL], the selectivity ratio in data set [6] came to 3.

On to `Cc1cc(C)c(NC(=O)OC2CCN(CCCCCCCCCNC[C@H](O)c3ccc(O)c(NS(C)(=O)=O)c3)CC2)c(-c2ccc(O)c(Cl)c2)c1`, for which the affinity in data set [1], expressed as Ki, was 38 nM. Moreover, the EC50 in data set [2] was 36 nM; in data set [3], above 10000 nM. For the same compound, the microsomal CLint in data set [4] was 32 µL/min/mg; in data set [5], 79 µL/min/mg.

As for `CS(=O)(=O)Nc1cc([C@@H](O)CNCCCCCCCCCN2CCC(OC(=O)Nc3ccccc3-c3ccc(O)cc3)CC2)ccc1O`, the inhibition constant (Ki) in data set [1] amounted to 2.2 nM. Besides, the EC50 in data set [2] was 26 nM; in data set [3] it was above 10000 nM. Also, the results for the intrinsic metabolic clearance (microsomal CLint) in data set [4] and in data set [5] were 4 µL/min/mg and 20 µL/min/mg, respectively.

In data set [1], `CS(=O)(=O)Nc1cc([C@@H](O)CNCCCCCCCCCN2CCC(OC(=O)Nc3ccccc3-c3ccccc3O)CC2)ccc1O` had a Ki of 18 nM. For the same compound, the EC50 in data set [2] is 90 nM; in data set [3], above 10000 nM. Further, the intrinsic clearance (microsomal CLint) is below 2 µL/min/mg in data set [4] and 17 µL/min/mg in data set [5].

Compound `CS(=O)(=O)Nc1cc([C@@H](O)CNCCCCCCCCCN2CCC(OC(=O)Nc3ccccc3-c3ccc(F)cc3O)CC2)ccc1O` came in with a Ki in data set [1] of 26 nM. This compound yielded an EC50 in data set [3] above 10000 nM. Also, the intrinsic metabolic clearance (microsomal CLint) was below 2 µL/min/mg in data set [4] and 8.8 µL/min/mg in data set [5].

`CS(=O)(=O)Nc1cc([C@@H](O)CNCCc2ccc(OCCN3CCC(OC(=O)Nc4ccccc4-c4ccc(O)c(Cl)c4)CC3)cc2)ccc1O` gave a Ki in data set [1] of 36 nM. The compound further yielded an EC50 in data set [3] above 10000 nM. For the same compound, the intrinsic clearance (microsomal CLint) in data set [4] is 48 µL/min/mg; in data set [5] it was 74 µL/min/mg.
